Data set [1] has as its system Swiss Webster male mice. Put plainly: Repeated open space forced swim (RFS) test. The settings on record: for immobility or distance swum versus vehicle, panel of currently available antidepressants: single acute i.p. dose 15 min prior, FIG. 14.
Data set [2] relates to brain α-adrenoceptors. The settings on record: cited from earlier work.
Data set [3] has as its system LC α1-adrenoceptors. As to the kind of experiment: Novel cage test after LC microinjection. It counts as in vivo, rat.
The subject of data set [4] is LC α1-adrenoceptors. Put plainly: Home cage test after LC microinjection. It counts as in vivo, rat. Here is the method:
The animal was brought into the laboratory in its home cage and habituated in this cage beneath the video camera for 3 h prior to being injected. […] Food and water remained on the cage during the test. The longer interval (30 min) was used in the home vs. novel cage test because a low baseline activity was desired, and it was necessary to allow time for the disturbance caused by handling the animal to subside. As in the novel cage test, the home cage tests were repeated for a total of 2-3 tests at weekly intervals with different doses of the agonist. All experiments were carried out between 1100 and 1400 h. Following the last behavioral test, the animals were anesthetized with Nembutal and infused bilaterally with 250 nl of 2% methylene blue. Frozen (unfixed) brain sections were stained with cresyl violet for histological localization of cannula placement.
Videotapes were rated blind for gross movements (GMs), crosses of the cage midline (cage Xs), rearing responses, and time immobile (TI) by a trained observer. […] This included walks to a wall, rears, turns in place, and stretch and attend responses.
Animals showing significant dye penetration of the 4th ventricle were excluded from the study. Comparisons between two drug conditions in the novel cage experiment were evaluated by Bonferronicorrected dependent t-tests.

Data set [5] concerns rats. Particulars: cited from earlier work; for antidepressant effect after intracerebral administration: intracerebral infusion/injection.
Data set [6] has as its system Swiss Webster male mice. Put plainly: Tail suspension test. It counts as in vivo, mouse. Particulars: DMI subacute i.p. 10 mg/kg.
The test system of data set [7] is Swiss Webster male mice. As to the kind of experiment: LPS model of depression (anhedonia). Format: in vivo, mouse. The settings on record: subacute i.p. DMI. Here is the method: 1LPS model of depression (anhedonia): A modification of the Frenois et al (2007) model of LPS-induced anhedonia in the mouse was used to obtain a non-motoric index of depressed behavior. In this model, trained mice show a marked decrease in preference for a sweet solution 24-48 h after a systemic dose of LPS (830 μg/kg, i.p.), a time when they have recovered from the sickness behavior and anorexia caused by the acute effects of the toxin. For the model, the animals were first implanted with 4th ventricular cannulas as above and, during the recovery period, trained to drink diluted sweetened condensed milk solution (Magnolia 1:3 v:v milk:tap water) by 15 min presentations every other day for 7-10 d. […] Animals given i.p. injections were dosed 14, 12 and 0.5 h prior to the last test.

Data set [8] deals with Swiss Webster male mice. Put plainly: Acute forced swim test (Porsolt). Format: in vivo, mouse. The settings on record: second swim; 6FNE ivt. peak dose 3 nmoles; DMI subacute i.p. 10 mg/kg.
The test system of data set [9] is Swiss Webster male mice. As to the kind of experiment: Open field motor activity and anxiety (i.p. dp6FNE/prazosin). It counts as in vivo, mouse. The settings on record: 1 h; dp6FNE 0.1-3 mg/kg/prazosin; amphetamine 2 mg/kg i.p. Here is the method:
For purposes of comparison, some animals received instead d-amphetamine, 2 mg/kg, i.p. Total quadrants entered and time in the center area of the field as a ratio to the total distance traveled were rated from videorecordings.

The conditions of data set [10]: in vivo; cited from earlier work.
Where [11] appears, read: dpEPI 1 mg/kg i.p. in vehicle with prazosin 0.2 mg/kg + propranolol 0.5 mg/kg, 15 min prior.
Setting [12] is: 5th swim, acute ivt. 6FNE or DEX, DMI subacute i.p. 10 mg/kg.

Structures are written as SMILES.

Turning to `CNC1(c2ccccc2Cl)CCCCC1=O` (stereo not drawn) [ketamine], the “immobility or distance swum versus vehicle, panel of currently available antidepressants” value in data set [1] was “dp6FNE/prazosin (1 mg/kg) was the only agent that either significantly reduced immobility”.

As to `CNCC(O)c1ccc(OC(=O)C(C)(C)C)c(OC(=O)C(C)(C)C)c1` (stereo not drawn) [dpEPI, dipivalyl-epinephrine], in [1] (setting [11]), the “distance swum versus vehicle” value is on record as “increase in distance swum” and the immobility versus vehicle entry was “significant reduction in immobility”.

Regarding `CNC[C@H](O)c1ccc(O)c(O)c1` [EPI, epinephrine], the agonist efficacy entry in data set [2] is recorded as “full agonist”.

As to `CNCCC(Oc1ccc(C(F)(F)F)cc1)c1ccccc1` (stereo not drawn) [fluoxetine], the “immobility or distance swum versus vehicle, panel of currently available antidepressants” value in data set [1] was “dp6FNE/prazosin (1 mg/kg) was the only agent that either significantly reduced immobility”.

Turning to `CNC[C@H](O)c1cccc(O)c1` [PE, phenylephrine], the “reversal of terazosin-induced inactivity (GMs, cage Xs, TI)” value in data set [3] (PE 10 nmoles/side coinjected with terazosin 3 nmoles/side in LC, 5 rats) is “completely reverse the terazosin-induced inactivity”. For the same compound, in [4] (PE 0, 0.03, 0.1, 0.3, 1 nmole/side in LC, 30 min), the “GMs and cage Xs, dose-response” value is recorded as “small dose-dependent increases”. Further, in data set [4] (PE 1.0 nmole/side in LC, home cage, 0-15 min), the “TI” value is 0.98 ± 0.98 min. In addition, in [4] (PE 1.0 nmole/side in LC, home cage, 0-15 min, five rats), the GMS stood at 195.2 ± 25.3. Further, in [4] (Rears as % of GM, PE 1.0 nmole/side in LC, home cage, 0-15 min), the “% Rears” value was found to be 33.5 ± 8.0%. Further, the “% Xs” value in [4] (Xs as % of GM, PE 1.0 nmole/side in LC, home cage, 0-15 min) is 12.3 ± 2.0%. Further, in data set [5] (16 mg/kg, i.p.), the “anti-immobility effect after systemic administration” value is recorded as “only at a near lethal dose”. Besides, in [5], the “antidepressant effect after intracerebral administration” value is “produced antidepressant effects in the forced swim test”.

`CCN(CCCl)Cc1ccccc1Br` [DSP4]: the “effect of pretreatment on behavioral effects of LC terazosin (novel cage) and PE (home cage)” value in data set [3] (DSP4 10 days before test) was “markedly attenuated the behavioral effects”. The “effect of pretreatment alone on exploratory activity” value in [3] (DSP4 10 days before test, novel or home cages) is given as “had no effect on exploratory activity”.

As to `CNCCCN1c2ccccc2CCc2ccccc21` [DMI, desmethylimipramine], the “immobility, % vehicle control” value in data set [6] (6FNE ivt. 3 nmoles) is 64.7±20.7%; in [1] (5th swim, 6FNE ivt. peak dose, DMI subacute i.p. 10 mg/kg), 94.8±7.1%. In addition, the immobility versus vehicle result is “significantly reduced immobility” in data set [6] (acute ivt. 6FNE or DEX), “significant reduction in immobility” in [8] and “failed to affect immobility or distance swum” in data set [1] (setting [12]). Moreover, in [7], the “anorexia / sucrose intake after subacute antidepressant” value is “anorexia and markedly reduced sucrose intakes”. The “distance swum versus vehicle” value in [1] (setting [12]) is on record as “failed to affect immobility or distance swum”. The “effect in repeated open-space swim test” value in data set [1] (acute i.p., dp6FNE 1, 3, 10 mg/kg with prazosin 0.2 mg/kg, DMI 10 mg/kg, FIG. 5) is listed as “complete lack of effect”. For the same compound, the “immobility or distance swum versus vehicle, panel of currently available antidepressants” value in data set [1] was “dp6FNE/prazosin (1 mg/kg) was the only agent that either significantly reduced immobility”.

On to `Clc1cccc(Cl)c1N=C1NCCN1` [clonidine], for which the “immobility or distance swum versus vehicle, panel of currently available antidepressants” value in data set [1] is listed as “dp6FNE/prazosin (1 mg/kg) was the only agent that either significantly reduced immobility”. Also, the “antidepressant effect after intracerebral administration” value in data set [5] is “rapid antidepressant effects”.

As to `C[C@H](N)Cc1ccccc1` [amphetamine, d-amphetamine], in data set [9], the “motor activity (quadrants entered)” value was “highly significant increase on locomotion” and the “relative time in the center of the field” value is reported as “significantly tended to reduce it”.

Turning to `Cc1ccc(N(CC2=NCCN2)c2cccc(O)c2)cc1` [Phentolamine, phentolamine], the “passage of the blood brain barrier / uptake by the brain” value in data set [10] is on record as “not taken up by the brain”.

Turning to `CC(NC(C)(C)C)C(=O)c1cccc(Cl)c1` (stereo not drawn) [bupropion], the “immobility or distance swum versus vehicle, panel of currently available antidepressants” value in data set [1] is given as “dp6FNE/prazosin (1 mg/kg) was the only agent that either significantly reduced immobility”.

(Values after patent US9023788B2, “Methods compounds and pharmaceutical compositions for treating anxiety and mood disorders” (New York University, priority 2010, dated 2015).)
